These results are taken from publication PMC10938454, “Preparation, Characterization, Antioxidant Activities, and Determination of Anti-Alzheimer Effects of PLGA-Based DDSs Containing Ferulic Acid” (ACS Omega, 2024).

The target of assay [1] is T1, AChE (acetylcholinesterase) (Electrophorus electricus, UniProt O42275).
T1 construct: native enzyme isolated from electric eel, type VI-S (printed 'type VIS')
In words: Ellman assay, […] nm, microplate. Type of assay: biochemical. The conditions noted are these: read-out: IC50 (μg.mL^-1) (converted). On the technique in general: DTNB colorimetry detects thiols as they appear.

For assay [2], the target named is T2, BuChE (butyrylcholinesterase) (Equus caballus, UniProt P81908).
T2 construct: gene BCHE; native enzyme isolated from horse serum
As to the kind of experiment: Ellman assay, […] nm, microplate. The format is biochemical. Particulars: read-out: IC50 (μg.mL^-1) (converted).

T2 sequence (P81908 whole entry): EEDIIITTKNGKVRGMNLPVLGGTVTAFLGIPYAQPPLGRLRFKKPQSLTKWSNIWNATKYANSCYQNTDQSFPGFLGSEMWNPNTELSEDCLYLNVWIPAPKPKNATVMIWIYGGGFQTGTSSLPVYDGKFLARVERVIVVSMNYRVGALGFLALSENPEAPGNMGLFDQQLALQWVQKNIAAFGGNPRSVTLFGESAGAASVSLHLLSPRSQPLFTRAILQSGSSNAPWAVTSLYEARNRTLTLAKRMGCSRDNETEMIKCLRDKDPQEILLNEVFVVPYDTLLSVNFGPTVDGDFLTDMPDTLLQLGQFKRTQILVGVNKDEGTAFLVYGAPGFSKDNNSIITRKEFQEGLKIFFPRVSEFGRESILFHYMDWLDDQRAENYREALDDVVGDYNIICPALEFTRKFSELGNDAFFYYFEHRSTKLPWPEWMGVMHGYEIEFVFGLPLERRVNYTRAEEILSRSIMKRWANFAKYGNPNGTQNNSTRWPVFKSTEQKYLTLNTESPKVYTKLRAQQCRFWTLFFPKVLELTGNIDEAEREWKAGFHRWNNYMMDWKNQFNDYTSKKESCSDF
T1 sequence (O42275 24-633): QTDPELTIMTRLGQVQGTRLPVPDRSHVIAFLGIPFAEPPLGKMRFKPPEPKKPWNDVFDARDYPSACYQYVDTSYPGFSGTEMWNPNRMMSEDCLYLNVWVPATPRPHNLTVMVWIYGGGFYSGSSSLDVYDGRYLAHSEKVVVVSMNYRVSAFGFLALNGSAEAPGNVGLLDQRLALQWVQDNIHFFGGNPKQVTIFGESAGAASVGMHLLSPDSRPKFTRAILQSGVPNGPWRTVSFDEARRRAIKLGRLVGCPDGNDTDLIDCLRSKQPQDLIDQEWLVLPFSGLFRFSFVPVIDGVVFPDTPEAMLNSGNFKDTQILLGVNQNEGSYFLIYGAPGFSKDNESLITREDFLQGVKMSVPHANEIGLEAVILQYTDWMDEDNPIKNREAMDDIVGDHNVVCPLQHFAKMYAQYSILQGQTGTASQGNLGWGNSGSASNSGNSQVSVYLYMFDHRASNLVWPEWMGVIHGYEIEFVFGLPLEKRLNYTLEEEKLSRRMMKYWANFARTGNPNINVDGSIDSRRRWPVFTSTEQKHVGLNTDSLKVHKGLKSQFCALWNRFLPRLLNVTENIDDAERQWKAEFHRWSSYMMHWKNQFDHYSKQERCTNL

As to `COc1cc(/C=C/C(=O)O)ccc1O` [ferulic acid], the IC50 in assay [1] was 2100 µM; in assay [2], 2680 µM.

Broadly, the IC50 is the point on the concentration scale where inhibition reaches its midpoint.
